Laboratory results as given in PubChem BioAssay (NCI).
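Step 1: Grow cells in 96-well plates. Step 2: Expose to compound for 48 hours at 5 concentrations. Step 3: Interpolate endpoints linearly; if unreached, use highest concentration. The concentration for full growth arrest is given as TGI.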

Tests used:
Experiment in all cases: NCI tumour cell line growth inhibition, 48 h
COLO 205 colon = test system: COLO 205 colon
OVCAR-8 ovarian = test system: OVCAR-8 ovarian
OVCAR-5 ovarian = test system: OVCAR-5 ovarian
CAKI-1 renal = test system: CAKI-1 renal
MDA-MB-231 breast = test system: MDA-MB-231 breast
HCT-116 colon = test system: HCT-116 colon
HS 578T breast = test system: HS 578T breast
M14 melanoma = test system: M14 melanoma
EKVX NSCLC = test system: EKVX NSCLC
OVCAR-3 ovarian = test system: OVCAR-3 ovarian
TK-10 renal = test system: TK-10 renal
RPMI-8226 leukemia = test system: RPMI-8226 leukemia
MCF7 breast = test system: MCF7 breast
HT29 colon = test system: HT29 colon
NCI-H226 lung = test system: NCI-H226 lung
IGROV1 ovarian = test system: IGROV1 ovarian
HL-60(TB) leukemia = test system: HL-60(TB) leukemia
HCT-15 colon = test system: HCT-15 colon
NCI-H522 lung = test system: NCI-H522 lung
KM12 colon = test system: KM12 colon
SK-MEL-5 melanoma = test system: SK-MEL-5 melanoma
SR leukemia = test system: SR leukemia
K-562 leukemia = test system: K-562 leukemia
SK-MEL-2 melanoma = test system: SK-MEL-2 melanoma
HOP-92 NSCLC = test system: HOP-92 NSCLC
UO-31 renal = test system: UO-31 renal
SK-OV-3 ovarian = test system: SK-OV-3 ovarian
HCC-2998 colon = test system: HCC-2998 colon
SNB-75 CNS = test system: SNB-75 CNS
SNB-19 CNS = test system: SNB-19 CNS
OVCAR-4 ovarian = test system: OVCAR-4 ovarian
MOLT-4 leukemia = test system: MOLT-4 leukemia
NCI-H23 lung = test system: NCI-H23 lung
LOX IMVI melanoma = test system: LOX IMVI melanoma
SK-MEL-28 melanoma = test system: SK-MEL-28 melanoma
MDA-MB-435 = test system: MDA-MB-435
T-47D breast = test system: T-47D breast
SF-295 CNS = test system: SF-295 CNS
UACC-62 melanoma = test system: UACC-62 melanoma
NCI-H460 lung = test system: NCI-H460 lung
SF-268 CNS = test system: SF-268 CNS
DU-145 prostate = test system: DU-145 prostate
RXF 393 renal = test system: RXF 393 renal
A549 NSCLC = test system: A549 NSCLC
CCRF-CEM leukemia = test system: CCRF-CEM leukemia
PC-3 prostate = test system: PC-3 prostate
786-0 renal = test system: 786-0 renal
BT-549 breast = test system: BT-549 breast
ACHN renal = test system: ACHN renal
NCI/ADR-RES ovarian = test system: NCI/ADR-RES ovarian
MDA-N = test system: MDA-N
SW-620 colon = test system: SW-620 colon
UACC-257 melanoma = test system: UACC-257 melanoma
MALME-3M melanoma = test system: MALME-3M melanoma
SF-539 CNS = test system: SF-539 CNS
U251 CNS = test system: U251 CNS
SN12C renal = test system: SN12C renal
A498 renal = test system: A498 renal
HOP-62 NSCLC = test system: HOP-62 NSCLC

O=c1[nH]c(Nc2cccc(Br)c2)nc2nc[nH]c12
TGI (COLO 205 colon): > 100 µM | TGI (OVCAR-8 ovarian): > 100 µM | TGI (OVCAR-5 ovarian): > 100 µM | TGI (CAKI-1 renal): > 100 µM | TGI (MDA-MB-231 breast): > 100 µM | TGI (HCT-116 colon): > 100 µM | TGI (HS 578T breast): > 100 µM | TGI (M14 melanoma): > 100 µM | TGI (EKVX NSCLC): > 100 µM | TGI (OVCAR-3 ovarian): > 100 µM | TGI (TK-10 renal): > 100 µM | TGI (RPMI-8226 leukemia): > 100 µM | TGI (MCF7 breast): > 100 µM | TGI (HT29 colon): > 100 µM | TGI (NCI-H226 lung): > 100 µM | TGI (IGROV1 ovarian): > 100 µM | TGI (HL-60(TB) leukemia): > 100 µM | TGI (HCT-15 colon): > 100 µM | TGI (NCI-H522 lung): > 100 µM | TGI (KM12 colon): > 100 µM | TGI (SK-MEL-5 melanoma): > 100 µM | TGI (SR leukemia): > 100 µM | TGI (K-562 leukemia): > 100 µM | TGI (SK-MEL-2 melanoma): > 100 µM | TGI (HOP-92 NSCLC): > 100 µM | TGI (UO-31 renal): > 100 µM | TGI (SK-OV-3 ovarian): > 100 µM | TGI (HCC-2998 colon): > 100 µM | TGI (SNB-75 CNS): > 100 µM | TGI (SNB-19 CNS): > 100 µM | TGI (OVCAR-4 ovarian): > 100 µM | TGI (MOLT-4 leukemia): > 100 µM | TGI (NCI-H23 lung): > 100 µM | TGI (LOX IMVI melanoma): > 100 µM | TGI (SK-MEL-28 melanoma): > 100 µM | TGI (MDA-MB-435): > 100 µM | TGI (T-47D breast): > 100 µM | TGI (SF-295 CNS): > 100 µM | TGI (UACC-62 melanoma): > 100 µM | TGI (NCI-H460 lung): > 100 µM | TGI (SF-268 CNS): > 100 µM | TGI (DU-145 prostate): > 100 µM | TGI (RXF 393 renal): > 100 µM | TGI (A549 NSCLC): > 100 µM | TGI (CCRF-CEM leukemia): > 100 µM | TGI (PC-3 prostate): > 100 µM | TGI (786-0 renal): > 100 µM | TGI (BT-549 breast): > 100 µM | TGI (ACHN renal): > 100 µM | TGI (NCI/ADR-RES ovarian): > 100 µM | TGI (MDA-N): > 100 µM | TGI (SW-620 colon): > 100 µM | TGI (UACC-257 melanoma): > 100 µM | TGI (MALME-3M melanoma): > 100 µM

CC[C@@]1(O)C(=O)OCc2c1cc1n(c2=O)Cc2c-1nc1ccccc1c2/C=N\NC(=O)C(N)Cc1cnc[nH]1 (some centres undefined)
TGI (COLO 205 colon): > 100 µM | TGI (OVCAR-8 ovarian): 16.1 µM | TGI (OVCAR-5 ovarian): > 54.6 µM | TGI (CAKI-1 renal): 3.21 µM | TGI (MDA-MB-231 breast): > 100 µM | TGI (HCT-116 colon): > 41.4 µM | TGI (HS 578T breast): > 100 µM | TGI (M14 melanoma): 2.63 µM | TGI (EKVX NSCLC): > 100 µM | TGI (OVCAR-3 ovarian): > 51.4 µM | TGI (TK-10 renal): > 100 µM | TGI (RPMI-8226 leukemia): 44 µM | TGI (MCF7 breast): 35.3 µM | TGI (SF-539 CNS): 0.538 µM | TGI (HT29 colon): > 57.3 µM | TGI (NCI-H226 lung): 16.5 µM | TGI (IGROV1 ovarian): > 54.7 µM | TGI (HCT-15 colon): > 100 µM | TGI (NCI-H522 lung): > 19.7 µM | TGI (KM12 colon): > 28.7 µM | TGI (SK-MEL-5 melanoma): 1.03 µM | TGI (SR leukemia): 0.387 µM | TGI (K-562 leukemia): > 100 µM | TGI (U251 CNS): 5.03 µM | TGI (SK-MEL-2 melanoma): > 46.5 µM | TGI (SN12C renal): > 73 µM | TGI (HOP-92 NSCLC): > 41.5 µM | TGI (UO-31 renal): 2.33 µM | TGI (SK-OV-3 ovarian): > 100 µM | TGI (HCC-2998 colon): > 67.5 µM | TGI (SNB-75 CNS): 36.5 µM | TGI (SNB-19 CNS): > 100 µM | TGI (OVCAR-4 ovarian): > 100 µM | TGI (A498 renal): 4.09 µM | TGI (MOLT-4 leukemia): 0.243 µM | TGI (NCI-H23 lung): 2.45 µM | TGI (LOX IMVI melanoma): 3.37 µM | TGI (SK-MEL-28 melanoma): > 100 µM | TGI (MDA-MB-435): > 85.9 µM | TGI (T-47D breast): > 100 µM | TGI (UACC-62 melanoma): 1.22 µM | TGI (NCI-H460 lung): 4.8 µM | TGI (SF-268 CNS): > 25.8 µM | TGI (DU-145 prostate): > 100 µM | TGI (RXF 393 renal): 9.59 µM | TGI (A549 NSCLC): > 100 µM | TGI (CCRF-CEM leukemia): 15 µM | TGI (PC-3 prostate): > 100 µM | TGI (BT-549 breast): > 100 µM | TGI (ACHN renal): 1.18 µM | TGI (HOP-62 NSCLC): 0.299 µM | TGI (MDA-N): > 100 µM | TGI (SW-620 colon): > 100 µM | TGI (UACC-257 melanoma): > 84.3 µM | TGI (MALME-3M melanoma): > 87.1 µM
